# Biological target: Casein kinase I isoform gamma-1 (Homo sapiens) (UniProt Q9HCP0)
# Assay: ligand binding to human CK1 gamma-1 kinase – biophysical, DSF, SYPRO orange, recombinant protein (AID 513)
# Details: recombinant CSNK1G1, DSF thermal shift, at 10 µM, protein 2 µM, hits give high values
# Casein kinase I isoform gamma-1 (Homo sapiens), sequence (Q9HCP0 whole entry, looked up, canonical isoform): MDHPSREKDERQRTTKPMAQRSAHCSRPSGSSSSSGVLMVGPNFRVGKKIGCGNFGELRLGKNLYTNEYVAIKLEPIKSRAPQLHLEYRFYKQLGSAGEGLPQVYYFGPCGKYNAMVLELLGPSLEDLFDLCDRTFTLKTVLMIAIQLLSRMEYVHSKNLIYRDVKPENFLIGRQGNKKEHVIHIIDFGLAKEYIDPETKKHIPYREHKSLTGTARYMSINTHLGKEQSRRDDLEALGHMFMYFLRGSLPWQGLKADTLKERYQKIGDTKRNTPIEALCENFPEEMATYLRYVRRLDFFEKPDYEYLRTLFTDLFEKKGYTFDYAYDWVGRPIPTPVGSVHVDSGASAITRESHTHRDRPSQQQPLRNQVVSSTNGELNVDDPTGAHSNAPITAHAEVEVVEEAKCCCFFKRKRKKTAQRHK
row,Compound,Tm shift [Celsius]
1,NC1=N/C(=C2/CCNC(=O)c3[nH]c(Br)cc32)C(=O)N1,5.7
2,CC(C)n1cnc2c(Nc3cccc(Cl)c3)nc(NCCO)nc21,6.1
3,CCn1cnc2c(Nc3cccc(Cl)c3)nc(N[C@@H]3CCCC[C@@H]3N)nc21,5.8
4,Nc1nc(Nc2ccccc2)sc1C(=O)c1ccc(F)cc1,3.9
5,O=c1[nH]c(O)c2c1c1c3ccccc3nc1n1cncc21,4.3
6,Oc1ccc(Nc2nccn3c(-c4cn[nH]c4)cnc23)cc1,3.2
7,O=c1c(O)c(-c2ccc(O)c(O)c2)oc2cc(O)cc(O)c12,3.2
8,NC(=O)c1ccc(-c2nc(-c3ccc4c(c3)OCCO4)c(-c3ccccn3)[nH]2)cc1,6.1
9,CCN(CC)CCNC(=O)c1c(C)[nH]c(/C=C2\C(=O)Nc3ccc(Cl)cc32)c1C,4.3
10,COc1ccc(Nc2nc(N)c(C(=O)c3ccc(Cl)cc3)s2)cc1,4.1
11,Nc1nc(Nc2cccc(Cl)c2)sc1C(=O)c1ccc(F)cc1,5.3
12,Nc1nc(Nc2ccc(F)cc2)sc1C(=O)c1ccccc1,4.1
13,CSc1nc(-c2ccnc(NC(C)c3ccccc3)c2)c(-c2ccc(F)cc2)[nH]1 (configuration not stated),3.6
14,COc1cc(/C=C/C(=O)CC(=O)/C=C/c2ccc(O)c(OC)c2)ccc1O,4.5
15,COc1ccc(Nc2nc(N)c(C(=O)c3ccc(OC)cc3)s2)cc1,5.6
16,Cc1cc(Nc2nc(-c3ccccc3)nc3ccccc23)n[nH]1,3.3
17,O=Nc1c(-c2c(O)[nH]c3cc(Br)ccc23)[nH]c2ccccc12,3.5
18,O=Nc1c(-c2c(O)[nH]c3ccc(S(O)(O)O)cc23)[nH]c2ccccc12,4
19,NC1=N/C(=C2\CCNC(=O)c3[nH]ccc32)C(=O)N1,3.6
20,Clc1ccc(Nc2ncc(-c3cn[nH]c3)n3ccnc23)cc1,3.6
21,Nc1nc(Nc2ccccc2F)sc1C(=O)c1ccc(Br)cc1,3.9
22,N#C/C(=C1\Nc2ccccc2S1)c1ccnc(NCCc2cccnc2)n1,3.7
